Patent publication US9828369B2, “Isoquinoline derivatives useful as inhibitors of diacylglyceride O-acyltransferase 2” (Merck Sharp & Dohme Corp., priority 2014, dated 2017)
pIC50: −log10 of the molar value.

Biological target: hDGAT2 (Homo sapiens (Human), UniProt Q96PD7)
Test: DGAT2 enzymatic activity assay (triolein formation, LC/MS/MS)
Conditions: read-out: IC50 values for inhibition of DGAT2; membrane prep of Sf-9 cells expressing hDGAT2; 25 μM diolein, 10 μM oleoyl-CoA; room temperature; triolein by LC/MS/MS

Sequence of hDGAT2 (Q96PD7 whole entry): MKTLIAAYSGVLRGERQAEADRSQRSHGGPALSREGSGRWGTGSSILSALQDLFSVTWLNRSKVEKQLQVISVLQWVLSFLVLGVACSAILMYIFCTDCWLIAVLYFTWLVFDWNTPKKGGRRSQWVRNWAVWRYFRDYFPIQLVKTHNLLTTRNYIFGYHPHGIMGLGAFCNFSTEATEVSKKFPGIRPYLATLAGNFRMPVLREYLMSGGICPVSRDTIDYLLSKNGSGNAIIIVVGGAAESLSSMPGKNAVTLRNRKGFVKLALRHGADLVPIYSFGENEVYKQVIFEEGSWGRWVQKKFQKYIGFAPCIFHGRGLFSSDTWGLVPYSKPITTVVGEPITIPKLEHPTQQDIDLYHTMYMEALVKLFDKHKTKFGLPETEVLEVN

| pIC50 | Compound |
| --- | --- |
| 6.32 | COCCCc1ccc(CNC(=O)Nc2cccc(Cl)c2Cl)c2cnccc12 [Example 159, 1-(2,3-dichlorophenyl)-3-((5-(3-methoxypropyl)isoquinolin-8-yl)methyl)urea] |
| 5.92 | CNC(=O)c1cccc(-c2ccc(CNC(=O)Nc3cccc(Cl)c3Cl)c3cnccc23)c1 [Example 161, 3-(8-((3-(2,3-dichlorophenyl)ureido)methyl)isoquinolin-5-yl)-N-methylbenzamide] |
| 5.71 | CC(C)(C)OC(=O)N1CC=C(c2ccc(CNC(=O)Nc3cccc(Cl)c3Cl)c3cnccc23)CC1 [Example 162, tert-butyl 4-(8-((3-(2,3-dichlorophenyl)ureido)methyl)isoquinolin-5-yl)-5,6-dihydropyridine-1(2H)-carboxylate] |
| 5.63 | O=C(O)CCc1ccc(-c2ccc(CNC(=O)Nc3cccc(Cl)c3Cl)c3cnccc23)cc1 [Example 163, 3-(4-(8-((3-(2,3-dichlorophenyl)ureido)methyl)isoquinolin-5-yl)phenyl)propanoic acid] |
| 5.38 | CC(c1ccccc1)c1ccc(CNC(=O)Nc2cccc(Cl)c2Cl)c2cnccc12 (centres unmarked) [Example 164, 1-(2,3-dichlorophenyl)-3-((5-(1-phenylethyl)isoquinolin-8-yl)methyl)urea] |
| 5.37 | CC(C)(C)OC(=O)N1CCC=C(c2ccc(CNC(=O)Nc3cccc(Cl)c3Cl)c3cnccc23)C1 [Example 165, tert-butyl 3-(8-((3-(2,3-dichlorophenyl)ureido)methyl)isoquinolin-5-yl)-5,6-dihydropyridine-1(2H)-carboxylate] |
| 5.36 | O=C(NCc1ccc(-c2cccc(C(=O)N3CCOCC3)c2)c2ccncc12)Nc1cccc(Cl)c1Cl [Example 166, 1-(2,3-dichlorophenyl)-3-((5-(3-(morpholine-4-carbonyl)phenyl)isoquinolin-8-yl)methyl)urea] |
| 5.35 | O=C(NCc1ccc(C2=CCNC2)c2ccncc12)Nc1cccc(Cl)c1Cl [Example 167, 1-(2,3-dichlorophenyl)-3-((5-(2,5-dihydro-1H-pyrrol-3-yl)isoquinolin-8-yl)methyl)urea] |
| 5.15 | COc1cccc(-c2ccc(CNC(=O)Nc3ccccc3-c3ccccc3)c3cnccc23)c1 [Example 169, 1-([1,1′-biphenyl]-2-yl)-3-((5-(3-methoxyphenyl)isoquinolin-8-yl)methyl)urea] |
| 5.09 | COc1cccc(-c2ccc(CNC(=O)Nc3ccc(F)cc3F)c3ncccc23)c1 [Example 170, 1-(2,4-difluorophenyl)-3-((5-(3-methoxyphenyl)quinolin-8-yl)methyl)urea] |
| 6.69 | COc1cccc(-c2ccc(CNC(=O)C3CC3c3ccccc3)c3ccccc23)c1 (centres unmarked) [Example 172, N-((4-(3-methoxyphenyl)naphthalen-1-yl)methyl)-2-phenylcyclopropanecarboxamide] |
